Tests used:
[1] = Parallel artificial membrane permeability assay (PAMPA); details: for Conc. acceptor well / Conc. donor well: PAMPA after incubation
Description: The plates were stored at – 20 °C until ready for use. Prior to use, the plate was prewarmed at room temperature for 30 min. Donor- and acceptor solutions were prepared as 12 mM phosphate buffered saline with a pH of 6.5 (donor) respectively 7.4 (acceptor). […] Then, 300 μL of each donor solution were filled into the donor (bottom) wells of the PAMPA plate. 200 μL of the acceptor medium were loaded into each well of the pre-coated receiver plate (top). […] The compound concentrations in the donor- and acceptor wells were then determined using a Jasco 2 HPLC system equipped with a ReproSil-Pur 120 ODS-3 column (5 μm, 50 × 2 mm) and UV detection. […] The injection volume was 40 μL and the flow rate 1 mL/min. […] For X15695, two calibration curves were prepared in the presence (donor well) and absence (acceptor well) of 10% ethanol. (Figure S6). The experiments were performed in triplicates.
Where cA(t) is the compound concentration in the acceptor well in μmol⋅l^−1, cD(t) is the compound concentration in the donor well in […], VA and VD is the volume of the acceptor respectively donor solution per well in mL, A is the membrane area in cm^2 and t the incubation time in seconds (Table S3).

AHR = molecular target: T1, AHR (Homo sapiens, UniProt P35869); assay: AHR luciferase reporter assay in HAHLH cells; format: cell-based; details: 8 h, % of maximal luciferase activity with dioxin 10 nM, read-out: EC50 AHR transactivation
T1 construct: endogenous in cells; host or cells: HAHLH (HeLa with XRE-luciferase reporter)
T1 sequence (P35869 11-848): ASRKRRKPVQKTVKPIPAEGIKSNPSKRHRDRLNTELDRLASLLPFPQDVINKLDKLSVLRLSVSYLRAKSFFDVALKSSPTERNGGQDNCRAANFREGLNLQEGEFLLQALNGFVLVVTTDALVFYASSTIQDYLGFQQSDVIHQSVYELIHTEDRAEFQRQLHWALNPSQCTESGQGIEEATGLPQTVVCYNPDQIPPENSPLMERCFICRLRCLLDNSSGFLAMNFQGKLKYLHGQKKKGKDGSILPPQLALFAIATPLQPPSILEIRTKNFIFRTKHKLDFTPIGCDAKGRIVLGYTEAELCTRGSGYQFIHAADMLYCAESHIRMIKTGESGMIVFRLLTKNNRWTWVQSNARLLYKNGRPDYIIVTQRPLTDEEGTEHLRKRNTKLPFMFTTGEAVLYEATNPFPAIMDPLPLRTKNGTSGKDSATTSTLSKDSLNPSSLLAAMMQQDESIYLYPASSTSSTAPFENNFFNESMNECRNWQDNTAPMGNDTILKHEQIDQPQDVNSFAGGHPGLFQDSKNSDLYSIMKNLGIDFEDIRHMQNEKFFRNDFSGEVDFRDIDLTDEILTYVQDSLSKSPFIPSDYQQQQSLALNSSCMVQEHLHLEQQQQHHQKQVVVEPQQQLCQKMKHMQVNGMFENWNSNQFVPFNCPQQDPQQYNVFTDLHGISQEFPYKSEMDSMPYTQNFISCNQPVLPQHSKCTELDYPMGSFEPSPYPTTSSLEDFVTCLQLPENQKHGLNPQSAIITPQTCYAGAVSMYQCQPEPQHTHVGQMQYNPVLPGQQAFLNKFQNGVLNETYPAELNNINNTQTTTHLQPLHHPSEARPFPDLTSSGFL
Source text: To characterize the chemical induced AHR activity, we used the already established HAHLH reporter cell lines obtained by stably expression of HeLa cells with the dioxin-responsive gene XRE(TnGCGTG)3-tata-luciferase-Luc-hygromycin plasmid.[29] The reporter HELN hERα cell line was obtained by transfecting human HeLa cells with the ERE-responsive gene ERE-βGlobin-luciferase-Luc-neomycin and the pSG5-hERα-puromycin plasmids as previously described.[59] To determine the action of the chemical on AHR and hERα activity, cells were seeded at a density of 50,000 cells per well in 96-well white opaque tissue culture plates (Greiner CellStar) in 150 μL of Dulbecco’s Modified Eagle Medium: Nutrient Mixture F-12 (DMEM/F- 12) without phenol red and 1 g/L glucose and supplemented with 5% stripped fetal bovine serum, 100 units/mL of penicillin, 100 μg/mL of streptomycin (test medium). Twenty-four hours later, chemicals to be tested were added at 4x concentration in culture medium, and cells were incubated at 37 °C for 8 h (HAhLH cells) or 24 h (HELN hERα cells). At the end of the incubation period, culture medium was replaced with test medium containing 0.3 mM luciferin and luciferase activity was measured for 2 s in intact living cells using a MicroBeta Wallac luminometer (PerkinElmer). Tests were performed in quadruplicate at 4x concentration in the same medium in at least 4 independent experiments. Results were expressed as % of the maximal luciferase activity. […] Effective concentration (ECs) for a given compound, EC50 is defined as the concentration inducing 50% of its maximal effect. The EC50 values were calculated including the adjustment for the basal activity of the cell line.

AHR-Hsp90-XAP2 = molecular target: T2, AHR-Hsp90-XAP2 (Homo sapiens, UniProt P35869); assay: Thermal stability measurements (nano-DSF); format: binding; details: 2.5 μM protein, 12.5 μM compound
T2 construct: made in house
T2 sequence (P08238 whole entry partner, one chain of several): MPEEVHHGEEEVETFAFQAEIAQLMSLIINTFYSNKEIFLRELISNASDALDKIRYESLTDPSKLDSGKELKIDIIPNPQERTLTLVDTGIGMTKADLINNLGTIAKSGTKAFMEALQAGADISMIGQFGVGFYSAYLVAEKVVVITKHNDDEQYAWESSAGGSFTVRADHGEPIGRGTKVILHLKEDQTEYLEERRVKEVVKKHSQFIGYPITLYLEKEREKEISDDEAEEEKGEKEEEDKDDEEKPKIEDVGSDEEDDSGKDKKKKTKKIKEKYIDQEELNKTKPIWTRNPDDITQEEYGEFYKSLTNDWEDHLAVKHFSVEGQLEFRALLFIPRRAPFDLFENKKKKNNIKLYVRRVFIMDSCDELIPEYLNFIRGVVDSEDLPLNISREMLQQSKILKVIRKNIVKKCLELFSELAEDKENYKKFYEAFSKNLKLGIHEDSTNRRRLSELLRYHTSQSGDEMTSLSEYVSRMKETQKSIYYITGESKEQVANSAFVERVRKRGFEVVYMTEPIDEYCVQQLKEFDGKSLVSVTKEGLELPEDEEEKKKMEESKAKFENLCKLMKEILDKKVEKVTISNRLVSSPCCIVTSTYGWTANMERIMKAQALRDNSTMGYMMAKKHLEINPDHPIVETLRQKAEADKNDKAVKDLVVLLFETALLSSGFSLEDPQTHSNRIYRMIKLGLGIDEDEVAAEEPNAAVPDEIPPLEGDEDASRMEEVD
T2 sequence (O00170 whole entry partner, one chain of several): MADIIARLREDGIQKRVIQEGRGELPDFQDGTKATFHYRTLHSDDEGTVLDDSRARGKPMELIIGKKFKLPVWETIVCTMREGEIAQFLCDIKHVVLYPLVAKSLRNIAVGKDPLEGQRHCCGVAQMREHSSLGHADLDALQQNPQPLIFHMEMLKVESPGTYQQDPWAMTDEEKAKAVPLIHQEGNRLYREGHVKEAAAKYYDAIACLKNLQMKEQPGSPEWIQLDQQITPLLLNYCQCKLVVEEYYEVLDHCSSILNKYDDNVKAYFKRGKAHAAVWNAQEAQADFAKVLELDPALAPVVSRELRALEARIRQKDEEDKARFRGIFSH
Description: Thermal denaturation experiments of AHR complexes in the presence of compounds were performed using a Tycho NT.6 instrument (NanoTemper Technologies). Protein samples were prepared as previously described[67] and subsequently diluted in the buffer containing 20 mM Bis-Tris–HCl pH 7.0, 50 mM NaCl, 10 mM KCl, 10 mM MgCl2, 20 mM Na2MoO4 and 2 mM β-mercaptoethanol to a final protein concentration of 2.5 μM. Compound stock solutions were prepared at 20 mM in DMSO and added to the protein samples to yield a final concentration of 12.5 μM. For control measurements, DMSO was added to a final concentration of 5% (v/v). Following ligand or DMSO addition, the samples were gently mixed and incubated at room temperature for 10 min to allow equilibration. Thermal denaturation profiles were acquired over a temperature range of 35°C–95°C, with a heating rate of 1 °C per min. Fluorescence was monitored at emission wavelengths of 330 nm and 350 nm, and the data were analyzed as the first derivative of the fluorescence ratio (F330/F350) as a function of temperature. All experiments were performed in triplicate, and data were analyzed using the Tycho NT.6 software (NanoTemper Technologies) according to the manufacturer’s recommendations.

ERα in MCF-7 cells = assay: Immunoblot of ERα in MCF-7 cells; format: cell-based, human; details: MCF-7, 48 h, increasing concentrations up to 1 μM
Description: To determine the relative expression of proteins by Western blotting, cells were first washed with ice-cold phosphate buffered saline (PBS). Subsequently, they were lysed in ice-cold NP40 lysis buffer (1%NP-40, 50 mM Tris-HCl, pH 8.0, 150 mM NaCl, 5 mM Ethylenediaminetetraacetic acid [EDTA], 1 mM PMSF) on ice. DNA was degraded by sonification (five pulses at 50 amplitudes). Protein concentration was determined, and equal amounts of protein were separated on a 9% SDS-PAGE gel. The proteins were transferred onto nitrocellulose membrane by a standard Western blotting protocol and the membranes were incubated with the following antibodies: ERα (Santa Cruz Biotechnology, sc-8002, RRID: AB_627558) and PCNA (Santa Cruz Biotechnology, sc-56, RRID: AB_628110), followed by incubation with HRP labeled Goat anti-mouse Immunoglobulins (DAKO, P0447, RRID: AB_2617137).

[2] = system: ER+ MCF-7, ZR75–1, and T47D breast cancer cells; design: method as in PMID 37520743; details: previously identified ref 17; cited from earlier work
ERα full-length = molecular target: T3, ERα full-length (Homo sapiens, UniProt P03372); assay: PolarScreen ERα Competitor Assay (fluorescence polarization); format: binding
T3 construct: 34 nM ERα full-length and 1.4 nM Fluormone EL Red were incubated; purchased ThermoFisher A15884
T3 sequence (P03372 1-595): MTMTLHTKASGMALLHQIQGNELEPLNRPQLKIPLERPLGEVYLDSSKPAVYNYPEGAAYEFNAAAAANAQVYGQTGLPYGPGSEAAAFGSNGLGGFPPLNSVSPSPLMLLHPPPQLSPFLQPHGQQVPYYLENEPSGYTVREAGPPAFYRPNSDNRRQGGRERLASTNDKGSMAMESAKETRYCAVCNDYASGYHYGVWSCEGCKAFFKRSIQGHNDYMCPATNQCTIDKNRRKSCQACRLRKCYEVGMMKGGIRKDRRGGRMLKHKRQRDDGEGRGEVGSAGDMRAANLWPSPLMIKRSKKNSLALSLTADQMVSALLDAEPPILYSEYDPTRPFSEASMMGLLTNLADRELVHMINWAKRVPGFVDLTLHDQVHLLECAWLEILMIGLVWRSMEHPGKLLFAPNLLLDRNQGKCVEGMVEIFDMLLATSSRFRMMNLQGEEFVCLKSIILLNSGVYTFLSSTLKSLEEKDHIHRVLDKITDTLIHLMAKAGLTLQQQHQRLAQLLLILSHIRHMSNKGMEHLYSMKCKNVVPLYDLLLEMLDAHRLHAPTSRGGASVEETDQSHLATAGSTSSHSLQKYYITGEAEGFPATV
Description: The PolarScreen Estrogen Receptor-Alpha Competitor Assay, Red (ThermoFisher, A15884) was used to determine if the X compounds bind to ERα. The assay was performed according to the manufacturer’s protocol.

MCF-7 cells = assay: Clonogenic assay in MCF-7 cells with AHR antagonist CH223191; format: cell-based, human; details: MCF-7, 10 nM compound, 1 μM CH223191, 14 days
Description: Cells were seeded at a density of 1–2×10^3 cells/well in a 6-well plate and treated with increasing concentrations of the X compounds for 14–21 days. Medium and compounds were renewed every 7 days. The experiments were terminated by fixing the cells with methanol and the colonies formed were visualized after staining with 0.5% crystal violet (w/v) in 20% methanol (v/v). Plates were photographed and the area covered by the colonies was calculated using the ColonyArea Plugin for Fiji (RRID:SCR_003070).[20]

[3] = system: AHR target genes CYP1A1, CYP1B1, ALDH3A1; details: human, 16 h, 1 µM

Cn1c(=O)c2c(ncn2C)n(C)c1=O [Caffeine]
Papp at 5 h, 200 µM ([1]; PAMPA): 10.7 ×10⁻⁶ cm/s | Conc. acceptor well ([1]; replica 1): 43.91 µM | Conc. donor well ([1]; replica 1): 160.76 µM | Conc. acceptor well ([1]; replica 2): 41.44 µM | Conc. donor well ([1]; replica 2): 161.45 µM | Conc. acceptor well ([1]; replica 3): 46.38 µM | Conc. donor well ([1]; replica 3): 165.23 µM

Clc1cc2c(cc1Cl)Oc1cc(Cl)c(Cl)cc1O2 [Dioxin, reference compound]
EC50 (AHR): 1.24 nM

O=C1NC(=O)C(c2ccccc2)(c2ccccc2)N1 [Phenytoin]
Conc. acceptor well ([1]; replica 1): 7.15 µM | Conc. donor well ([1]; replica 1): 112.02 µM | Conc. acceptor well ([1]; replica 2): 10.14 µM | Conc. donor well ([1]; replica 2): 117.35 µM | Conc. acceptor well ([1]; replica 3): 14.06 µM | Conc. donor well ([1]; replica 3): 120.53 µM

Cc1cccn2cc(-c3ccc(F)cc3)nc12 [X19167]
EC50 (AHR): 173 nM | thermal stabilization of AHR (nano-DSF) (AHR-Hsp90-XAP2): promote AHR destabilization | ERα destabilization (immunoblot) (ERα in MCF-7 cells): no significant ERα destabilization | Inhibition of Proliferation [2]: No | displacement of the Fluormone tracer from ERα (ERα full-length): failed to displace the Fluormone

Fc1ccccc1-c1cn2ccccc2n1 [X19712]
thermal stabilization of AHR (nano-DSF) (AHR-Hsp90-XAP2): promote AHR destabilization | ERα destabilization (immunoblot) (ERα in MCF-7 cells): no significant ERα destabilization | Inhibition of Proliferation [2]: No | displacement of the Fluormone tracer from ERα (ERα full-length): failed to displace the Fluormone

Cc1cccn2cc(-c3ccccc3F)nc12 [X19718]
thermal stabilization of AHR (nano-DSF) (AHR-Hsp90-XAP2): promote AHR destabilization | ERα destabilization (immunoblot) (ERα in MCF-7 cells): no significant ERα destabilization | Inhibition of Proliferation [2]: No | displacement of the Fluormone tracer from ERα (ERα full-length): failed to displace the Fluormone

Fc1ccc(-c2cn3cc(C(F)(F)F)ccc3n2)cc1 [X20046]
inhibition of colony expansion in the presence of AHR antagonist CH223191 (MCF-7 cells): clearly abrogated by the AHR antagonist CH223191 | expression of AHR target genes (RT-PCR) [3]: enhanced the transcriptional activity of the AHR target genes in both MCF-7 and T47D cells | ERα destabilization (immunoblot) (ERα in MCF-7 cells): most proficient in destabilizing ERα | Inhibition of Proliferation [2]: Yes
